Data from article PMC11302688, “The Effect of Replication Protein A Inhibition and Post-Translational Modification on ATR Kinase Signaling” (Research Square, 2024).
Read-outs that look alike come from different tables or passages of the source.

How the values were obtained:
RPA [1] = target: T1, RPA (Homo sapiens, UniProt P27694); settings: read-out: in vitro RPA-DNA binding inhibition IC50; cited from earlier work
T1 construct: His (C); made in house; host or cells: E. coli BL21(DE3)

ATR-ATRIP = target: T2, ATR-ATRIP (Homo sapiens, UniProt P27694); experiment: Reconstituted ATR kinase assay (western blot of phosphorylation targets); type: biochemical; settings: for IC50: fully reconstituted ATR kinase reaction; for ATR-dependent phosphorylation of RPA32 Ser33 and Thr21 / ATR-dependent phosphorylation of p53 Ser15: reconstituted reaction with ssDNA, RPA, TopBP1, ATR-ATRIP, western blot
T2 construct: His (C); purchased Eurofins DiscoverX 14–953
Description: The minimal requirements to reconstitute ATR signaling in vitro are ssDNA, RPA, TopBP1, and ATR-ATRIP, and a phosphorylation target[51]–[54]. We used a similar experimental design with purified RPA, TopBP1, p53, and ATR-ATRIP, and reconstituted ATR activation and signaling using an M13mp18 ssDNA plasmid (Figure S1A-B). It has been reported that TopBP1 can stimulate ATR activity independent of RPA and in the presence or absence of a variety of DNA substrates at specific protein and salt concentrations, though the physiological relevance is unknown. We, therefore, first established physiological experimental conditions to reflect the dependence of ATR kinase activity on RPA, ssDNA, and TopBP1 by monitoring the phosphorylation of the ATR target p53 at Ser15. Low, background levels of ATR-dependent p53 phosphorylation are observed with various combinations of ssDNA, RPA, and TopBP1, however, as expected, maximal activation is observed only in the presence of all three (Fig. 1A–B). Importantly, p53 phosphorylation under our assay conditions was dependent upon RPA and ssDNA. […] (Fig. 1A–B). The RPA70 OB-F domain interacts with p53, and this interaction is thought to facilitate the recruitment of p53 for ATR phosphorylation. p53 also has weak ssDNA binding affinity that could influence it as a substrate for ATR, so we next compared the phosphorylation of wild-type (WT) p53 with that of the DNA-binding-impaired p53 R175H mutant. […] We then evaluated the impact of chemical RPA inhibition on ATR-dependent p53 phosphorylation in the reconstituted reactions. We first assessed the activity of RPA inhibitors that block the RPA-ssDNA interaction (RPA-DBi).
Kinase assays were performed in 15 mM HEPES pH 7.9, 30 mM KCl, 3 mM MgCl2, 5% glycerol, 1x phosphatase inhibitor cocktail 2 (Sigma-Aldrich, P5726), 0.5 mM DTT. RPAi were suspended in 100% DMSO, and the DMSO concentration in the final reaction mixture was kept constant at 5%. In a typical reaction (20 μL), 20 ng ATR-ATRIP, 20 nM TopBP1, 20 nM RPA, and 40 nM p53 were initially incubated on ice for 15 min. Reactions were initiated by the addition of 100 μM ATP and 1 ng M13mp18 ssDNA plasmid and incubated at 37°C for 1 hr. Reactions were quenched by the addition of 6x Laemmli buffer and brief boiling at 95°C. For reactions with RPAi, inhibitors were added for the initial 15 min incubation on ice. For reactions with pRPA, the indicated proteins (same concentrations as above) were incubated with 0.5 ng/μL DNA-PK, 100 μM ATP, and 1 ng M13mp18 ssDNA plasmid for 30 min at 37°C. Reactions were moved back to ice and 100 nM NU7441 was added to inhibit further DNA-PK kinase activity (for subsequent ATR kinase reactions) or quenched with 6x Laemmli buffer and brief boiling at 95°C (for control reactions). The remaining components required for ATR kinase reaction were then added to each reaction as indicated and returned to 37°C for 1 hr before quenching in the same manner as above. Proteins were separated by SDS-PAGE and transferred to polyvinylidene difluoride (PVDF) membranes (Bio-Rad, 1620177). Immunoblotting for RPA32 pSer33 (Thermo Fisher Scientific, A300–246A), RPA32 pSer4/8 (Thermo Fisher Scientific, A300–245A), RPA32 (Thermo Fisher Scientific, PA5–2256), and TopBP1 pSer1138 (Thermo Fisher Scientific, PA5–114666) were conducted in Tris-buffered saline (TBS)/0.5% Tween20 and immunoblotting for p53 pSer15 (Cell Signaling Technology, 9284S), p53 (Cell Signaling Technology, 2524S), and RPA32 pThr21 (Thermo Fisher Scientific, PA5–104809) were conducted in TBS/0.1% Tween20. All membranes were blocked with 2% BSA in TBS/Tween20 and incubated rocking at 4°C overnight. Membranes were washed with TBS/Tween20 and incubated with the corresponding IgG-horseradish peroxidase (HRP) secondary antibody (Bio-Rad, 1706515 & 1706516) for two hours at room temperature with orbital shaking. […]

[2] = system: ATR phosphorylation events; parameters: method as in PMID 25070753; settings: cited from earlier work
RPA [3] = target: T1, RPA; parameters: method as in PMID 25070753; settings: cited from earlier work
[4] = target: RPA (His-tagged heterotrimer RPA70/RPA32/RPA14) (UniProt P27694;P15927;P35244 1-616;1-270;1-121); experiment: EMSA; binding not disrupted by PAME 12.5-200 uM; PAME EMSA: 10 mM Tris pH 7.5, 10 mM NaCl, 10% glycerol, 25 C, 10 nM DNA, 7 nM (ssDNA) or 14 nM (duplex) RPA, 1% agarose; acetylation EMSA: 20 mM HEPES pH 7.8, 50 mM NaCl, 1 mM DTT, 5% DMSO, 0.001% NP-40, RT, 2.5 nM DNA, 6% native PAGE; settings: protein: recombinant; tags: His (on RPA70, plasmid p11d-tRPA70-His); copies: 1;1;1; label: 5' IRDye700; single strand
Chain of RPA (His-tagged heterotrimer RPA70/RPA32/RPA14) (P27694 whole entry, chain 1 of 3): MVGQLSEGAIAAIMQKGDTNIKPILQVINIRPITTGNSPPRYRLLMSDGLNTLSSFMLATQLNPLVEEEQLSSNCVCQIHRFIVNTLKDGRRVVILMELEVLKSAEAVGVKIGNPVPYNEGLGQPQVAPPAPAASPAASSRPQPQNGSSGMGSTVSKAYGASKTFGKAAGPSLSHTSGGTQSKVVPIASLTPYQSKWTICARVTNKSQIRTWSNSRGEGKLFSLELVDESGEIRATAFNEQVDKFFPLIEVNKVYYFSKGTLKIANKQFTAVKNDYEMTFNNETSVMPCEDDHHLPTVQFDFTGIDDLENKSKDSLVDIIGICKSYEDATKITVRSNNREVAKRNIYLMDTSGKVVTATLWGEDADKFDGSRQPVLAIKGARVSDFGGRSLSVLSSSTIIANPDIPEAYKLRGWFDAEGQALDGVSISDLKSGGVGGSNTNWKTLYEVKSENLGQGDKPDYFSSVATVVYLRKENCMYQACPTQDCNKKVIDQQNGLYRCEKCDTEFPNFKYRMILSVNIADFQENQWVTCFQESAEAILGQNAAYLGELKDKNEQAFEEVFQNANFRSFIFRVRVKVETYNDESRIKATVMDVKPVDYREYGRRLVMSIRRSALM
Chain of RPA (His-tagged heterotrimer RPA70/RPA32/RPA14) (P15927 whole entry, chain 2 of 3): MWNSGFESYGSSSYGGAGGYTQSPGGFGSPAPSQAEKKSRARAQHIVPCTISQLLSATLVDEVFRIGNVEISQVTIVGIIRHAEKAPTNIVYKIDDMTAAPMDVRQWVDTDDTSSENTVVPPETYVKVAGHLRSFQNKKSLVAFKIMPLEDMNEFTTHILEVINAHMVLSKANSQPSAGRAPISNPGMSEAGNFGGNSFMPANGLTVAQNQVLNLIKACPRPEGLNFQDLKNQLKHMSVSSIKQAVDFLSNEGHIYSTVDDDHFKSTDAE
Chain of RPA (His-tagged heterotrimer RPA70/RPA32/RPA14) (P35244 whole entry, chain 3 of 3): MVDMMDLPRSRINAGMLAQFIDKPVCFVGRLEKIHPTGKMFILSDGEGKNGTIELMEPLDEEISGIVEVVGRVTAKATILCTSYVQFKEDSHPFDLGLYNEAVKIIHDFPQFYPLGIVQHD

T2 sequence (P27694 whole entry): as the sequence (P27694 whole entry, chain 1 of 3) above
T2 sequence (P15927 whole entry partner): as the sequence (P15927 whole entry, chain 2 of 3) above
T2 sequence (P35244 whole entry partner): as the sequence (P35244 whole entry, chain 3 of 3) above
T1 sequence (P27694 whole entry): as the sequence (P27694 whole entry, chain 1 of 3) above
T1 sequence (P15927 whole entry partner): as the sequence (P15927 whole entry, chain 2 of 3) above
T1 sequence (P35244 whole entry partner): as the sequence (P35244 whole entry, chain 3 of 3) above

Which IC50 (RPA [1]) does the source give for `CCOc1ccc2cc(C3CC(c4ccc(I)cc4)=NN3C(=O)CCCC(=O)O)c(Cl)nc2c1` (stereo not drawn) [TDRL-551] here?
Its IC50 is roughly 15 µM.

And the IC50 (ATR-ATRIP; read-out: IC50 for ATR-dependent RPA32 Ser33 phosphorylation)?
The IC50 was 5 to 10 µM.

And the IC50 (ATR-ATRIP; read-out: IC50 for ATR-dependent RPA32 Thr21 phosphorylation)?
Its IC50 is 5 to 10 µM.

And the IC50 (ATR-ATRIP; read-out: IC50 for ATR-dependent p53 Ser15 phosphorylation)?
The IC50 was 5 to 10 µM.

And the “RPA phosphorylation at RPA32 Ser33 and Thr21 at low inhibitor concentration” value (ATR-ATRIP; low concentrations of inhibitor (Fig. 2C, lane 3), not observed with p53 Ser15)?
Its value is “stimulated”.

What about the “ATR-dependent phosphorylation of RPA32 Ser33 and Thr21” value (ATR-ATRIP) of the same molecule?
The value was “dose-dependent inhibition”.

And the “ATR-dependent phosphorylation of p53 Ser15” value (ATR-ATRIP)?
The value was “titratable inhibition”.

For `O=C1C=Cc2ccccc2/C1=C/Nc1ccccc1O` [HAMNO, (1Z)-1-[(2-hydroxyanilino)methylidene]naphthalen-2-one], which “levels of ATR phosphorylation events in treated cells” value [2] is on record?
The value was “lower levels of ATR phosphorylation events”.

What about the “RPA ssDNA binding” value (RPA [3]) of the same molecule?
Its value is “did not disrupt”.

And the “IC50 for RPA32 phosphorylation (both residues) lower than that of p53 phosphorylation” value (ATR-ATRIP; RPA32 Ser33 and Thr21 vs p53 Ser15)?
The value was ~ 10 fold.

What about the “ATR-dependent phosphorylation of RPA32 Ser33 and Thr21” value (ATR-ATRIP) of the same molecule?
Its value is “inhibited”.

What about the “ATR-dependent phosphorylation of p53 Ser15” value (ATR-ATRIP) of the same molecule?
Its value is “inhibited”.

What does the source list for `CS(=O)(=O)c1ccc(-c2cnc(N)c(C(=O)Nc3ccccc3)n2)cc1` [VE-821]?
ATR-dependent phosphorylation of RPA32 Ser33 and Thr21 (ATR-ATRIP): abolished; ATR-dependent phosphorylation of p53 Ser15 (ATR-ATRIP): no p53 phosphorylation is observed

Does TTTTTTTTTTTTTTTTTTTTTTTTTTTTTT (ssDNA) [polyT 30mer] bind [4]?
Result: binds
